Patent US9556160B2, “Guanidine compound” (Astellas Pharma Inc., priority 2011, dated 2017)
pIC50: −log10 of the molar value. Where a name gives a salt, the structure may show the parent alone.

Key:
[1] = tested on: VAP-1 enzyme (SSAO) activity in rat plasma; test: Inhibitory effect on rat VAP-1 enzyme (SSAO) activity in rat plasma after oral administration; type: in vivo, Wistar male rats; details: rat plasma VAP-1 activity, oral 0.3 mg/kg; for Inhibition Ratio (%) 1 h: 1 h after administration; for Inhibition Ratio (%) 3 h: 3 h after administration; for Inhibition Ratio (%) 6 h: 6 h after administration; for Inhibition Ratio (%) 24 h: 24 h after administration; for Inhibition Ratio (%) 12 h: 12 h after administration
Procedure: Eight-week to twelve-week Wistar male rats were fasted for 20 hours, and orally administered with a test drug ([…]). Heparin blood collection from the tail vein was performed immediately before the administration, and at 1 h, 3 h, 6 h, 12 h, or 24 h after the administration. The resulting blood was subjected to centrifugation at 14000 rpm for 5 minutes to separate plasma, and the VAP-1 enzyme activity in the resulting plasma was measured by a radio-enzyme assay method.
For the radio-enzyme assay method, ^14C-benzylamine which is a synthetic substrate (10 μM) was reacted with the resulting plasma at 37° C., and the resulting metabolite was extracted with a mixture of toluene/ethyl acetate. The radioactivity was measured and taken as a VAP-1 enzyme activity in the plasma. The effect of the test drug was calculated from the inhibitory ratio (%) of the VAP-1 activity after the administration of the test drug relative to the VAP-1 activity in the plasma immediately before the administration.

rat VAP-1 enzyme (SSAO) = rat VAP-1 enzyme (SSAO) (Rattus norvegicus (Rat), UniProt O08590); test: Inhibitory effect on rat VAP-1 enzyme (SSAO) activity, radiochemistry-enzymatic assay with 14C-benzylamine; type: biochemical; details: CHO-expressed rat VAP-1, 14C-benzylamine 1×10^−5 mol/L
Procedure: (§1) After homogenizing CHO (Chinese Hamster Ovary) cells stably expressing a rat VAP-1 enzyme (SSAO) in a 50 mM phosphate buffer containing 1% NP-40, an enzyme suspension was obtained by taking the supernatant obtained by centrifugation. The enzyme suspension was preincubated with the compound of the present invention in a 96-well microplate at room temperature for 30 minutes. Subsequently, the enzyme suspension was incubated with ^14C-benzylamine (a final concentration of 1×10^−5 mol/L) to a final volume of […] at 37° C. for 1 hour. The enzymatic reaction was stopped by the addition of 2 mol/L (50 μL) of citric acid. The oxidation products were extracted directly in a 200 μL toluene scintillator, and the radioactivity was measured with a scintillation spectrometer.

[2] = target: human VAP-1 enzyme (SSAO) (Homo sapiens (Human), UniProt Q16853); test: Inhibitory effect on human VAP-1 enzyme (SSAO) activity, radiochemistry-enzymatic assay with 14C-benzylamine; type: biochemical; details: CHO-expressed human VAP-1, 14C-benzylamine 1×10^−5 mol/L
Procedure: as §1, with “a human” for “a rat”, “[…]” for “(50 μL)”, “acid.” for “acid. The oxidation products were extracted directly in a 200 μL toluene scintillator, and the radioactivity was measured with a scintillation spectrometer.”

human VAP-1 enzyme (SSAO), sequence (Q16853 whole entry): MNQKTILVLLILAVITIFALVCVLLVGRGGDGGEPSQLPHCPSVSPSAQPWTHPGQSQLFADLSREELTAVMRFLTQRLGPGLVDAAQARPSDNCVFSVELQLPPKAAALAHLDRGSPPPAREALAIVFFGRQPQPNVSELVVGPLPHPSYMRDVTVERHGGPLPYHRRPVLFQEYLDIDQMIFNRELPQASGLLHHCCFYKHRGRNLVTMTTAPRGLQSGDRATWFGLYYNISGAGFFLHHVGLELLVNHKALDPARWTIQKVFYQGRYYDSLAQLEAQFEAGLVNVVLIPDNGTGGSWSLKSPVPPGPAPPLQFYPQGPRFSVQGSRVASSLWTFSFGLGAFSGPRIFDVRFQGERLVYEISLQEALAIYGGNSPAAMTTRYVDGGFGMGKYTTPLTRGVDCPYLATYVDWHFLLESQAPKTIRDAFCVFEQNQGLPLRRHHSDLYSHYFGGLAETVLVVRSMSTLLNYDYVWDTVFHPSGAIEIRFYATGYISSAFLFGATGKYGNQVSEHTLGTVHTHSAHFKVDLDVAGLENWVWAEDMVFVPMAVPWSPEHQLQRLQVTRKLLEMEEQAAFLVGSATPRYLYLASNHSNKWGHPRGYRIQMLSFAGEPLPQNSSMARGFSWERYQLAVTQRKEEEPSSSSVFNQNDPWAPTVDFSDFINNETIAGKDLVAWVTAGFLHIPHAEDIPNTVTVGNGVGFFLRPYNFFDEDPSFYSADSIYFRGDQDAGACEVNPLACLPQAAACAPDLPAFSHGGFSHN
rat VAP-1 enzyme (SSAO), sequence (O08590 whole entry): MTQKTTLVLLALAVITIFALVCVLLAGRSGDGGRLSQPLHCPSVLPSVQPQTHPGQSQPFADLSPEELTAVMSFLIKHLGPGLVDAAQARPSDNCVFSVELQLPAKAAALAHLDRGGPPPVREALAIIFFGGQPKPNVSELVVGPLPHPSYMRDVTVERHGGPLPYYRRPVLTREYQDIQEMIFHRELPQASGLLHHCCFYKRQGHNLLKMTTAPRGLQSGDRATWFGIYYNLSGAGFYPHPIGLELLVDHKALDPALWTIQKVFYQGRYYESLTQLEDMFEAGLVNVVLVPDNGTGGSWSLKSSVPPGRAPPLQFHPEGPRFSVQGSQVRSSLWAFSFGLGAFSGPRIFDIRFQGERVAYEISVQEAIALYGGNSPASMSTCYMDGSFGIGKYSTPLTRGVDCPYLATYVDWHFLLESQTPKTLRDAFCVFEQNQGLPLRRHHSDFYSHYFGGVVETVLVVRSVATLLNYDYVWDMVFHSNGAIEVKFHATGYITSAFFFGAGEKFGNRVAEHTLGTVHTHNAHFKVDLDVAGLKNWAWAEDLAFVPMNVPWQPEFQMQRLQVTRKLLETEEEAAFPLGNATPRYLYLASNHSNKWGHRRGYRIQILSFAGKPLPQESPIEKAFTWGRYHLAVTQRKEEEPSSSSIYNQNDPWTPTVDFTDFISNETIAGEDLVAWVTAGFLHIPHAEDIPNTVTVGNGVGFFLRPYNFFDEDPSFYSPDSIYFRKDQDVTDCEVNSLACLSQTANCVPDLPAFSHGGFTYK

| SMILES | Inhibition Ratio (%) 1 h [1] [%] | Inhibition Ratio (%) 3 h [1] [%] | Inhibition Ratio (%) 6 h [1] [%] | Inhibition Ratio (%) 24 h [1] [%] | pIC50 (rat VAP-1 enzyme (SSAO)) | pIC50 [2] | Inhibition Ratio (%) 12 h [1] [%] |
| --- | --- | --- | --- | --- | --- | --- | --- |
| N=C(N)NC(=O)OCc1cccc(-c2cnc(OCC3CCN(C(=O)c4cccnc4)CC3)nc2)c1F [Example 29] | 46 | 60 | 58 | 22 | 8.72 | 8.14 | – |
| N=C(N)NC(=O)OCc1cccc(N2CCC(c3ccncc3)CC2)c1F [Example 52] | 90 | 68 | 52 | – | 8.77 | 7.64 | 37 |
| COC1CN(c2ncc(-c3cccc(COC(=O)NC(=N)N)c3F)cn2)C1 [Example 63] | 83 | 87 | 80 | – | 8.96 | 8.47 | 68 |
| N=C(N)NC(=O)OCc1cccc(-c2cnc(OCC3CCN(C(=O)C4CC4)CC3)nc2)c1F [Example 74] | 79 | 74 | 81 | 40 | 8.74 | 8.28 | – |
| Cl.N=C(N)NC(=O)OCc1cccc(-c2cnc(N3CCOCC3)nc2)c1F [Example 81] | 78 | 78 | 78 | – | 8.41 | 8.01 | 53 |
| CC(=O)Nc1nc(CCc2cccc(CNC(=O)NC(=N)N)c2)cs1.Cl [Example 83] | 34 | 66 | 86 | – | 8.72 | 7.60 | 53 |
| CC(=O)N1CCC(COc2ncc(-c3cccc(CNC(=O)NC(=N)N)c3F)cn2)CC1 [Example 105] | 22 | 38 | 31 | 6 | 8.59 | 7.85 | – |
| CC1(O)CCN(c2ncc(N3CCN(c4cccc(COC(=O)NC(=N)N)c4F)CC3)cn2)CC1 [Example 110] | 96 | 96 | 95 | 75 | 8.85 | 7.49 | – |
| N=C(N)NC(=O)OCc1cccc(N2CCN(c3cnc(N4CC[C@@H](F)C4)nc3)CC2)c1F [Example 118] | 87 | 86 | 88 | 59 | 8.77 | 7.54 | – |
| COc1ncc(N2CCN(c3cccc(COC(=O)NC(=N)N)c3F)CC2)cn1 [Example 126] | 98 | 97 | 97 | 69 | 9.28 | 7.82 | – |
| CCS(=O)(=O)N1CCN(c2cccc(COC(=O)NC(=N)N)c2F)CC1 [Example 157] | 95 | 91 | 80 | 39 | 8.68 | 7.31 | – |
| N=C(N)NC(=O)OCc1cccc(-c2cnc(N3CC[C@H](F)C3)nc2)c1 [Example 178] | 63 | 73 | 67 | – | 8.36 | 7.48 | 80 |
| CC(=O)N1CCC(OC2CCN(c3cccc(COC(=O)NC(=N)N)c3F)CC2)CC1 [Example 220] | 80 | 80 | 84 | 27 | 9.00 | 7.60 | – |
| N=C(N)NC(=O)OCc1cccc(N2CCN(C(=O)CC3CCOCC3)CC2)c1F [Example 273] | 55 | 74 | 54 | 19 | 9.02 | 7.72 | – |
| N=C(N)NC(=O)OCc1cccc(N2CCN(c3cccnc3)CC2)c1F [Example 293] | – | – | – | – | 9.01 | – | – |
| Cc1ccc(N2CCN(c3cccc(COC(=O)NC(=N)N)c3F)CC2)cn1 [Example 300] | 92 | 93 | 88 | 85 | 8.77 | 7.72 | – |
| N=C(N)NC(=O)OCc1cccc(N2CCN(c3cccnc3)C(=O)C2)c1F [Example 304] | 52 | 56 | 56 | 18 | 8.18 | 7.47 | – |
| COC1CN(c2ncc(N3CCN(c4cccc(COC(=O)NC(=N)N)c4F)CC3)cn2)C1 [Example 316, 2-fluoro-3-{4-[2-(3-methoxyazetidin-1-yl)pyrimidin-5-yl]piperazin-1-yl}benzyl carbamimidoylcarbamate trihydrochloride] | 91 | 99 | 98 | – | 9.05 | 7.96 | 91 |
| N=C(N)NC(=O)NCc1cccc(-c2cnc(N3CCOCC3)nc2)c1 [Example 322] | 40 | 55 | 50 | – | 7.66 | 7.29 | 38 |
| N=C(N)NC(=O)OCc1cccc(-c2cnc(N3CCN(c4ccc(CCC(=O)O)cc4)CC3)nc2)c1F [Example 335] | 82 | 84 | 86 | – | 8.70 | 7.96 | 83 |
| CCC(=O)N1CCC(OC2CN(c3cccc(COC(=O)NC(=N)N)c3F)C2)CC1 [Example 551] | 68 | 59 | 51 | 5 | 8.74 | 7.85 | – |
| COCc1ccc(OC2CN(c3cccc(COC(=O)NC(=N)N)c3F)C2)cn1 [Example 553] | 67 | 57 | 50 | 40 | 8.52 | 7.70 | – |
